These results are taken from US20090241221A1, “TANDEM REAPEAT DNA CONSTRUCTS PRODUCING PROTEINS THAT ATTACK PLANT PATHOGENIC VIRUSES, FUNGI, AND BACTERIA BY DISRUPTING TRANSCRIPTION FACTORS ESSENTIAL FOR REPLICATION THEREOF IN PLANTS” (priority 2008, published 2009).

Series [1] deals with mammalian retroviruses. Particulars: millimolar concentrations; measured by release of reverse transcriptase; cited from earlier work.
Series [2] concerns Mammalian rotaviruses. The following applies: millimolar concentrations; cited from earlier work.
In series [3] the test system is Arabidopsis thaliana ars27A mutant. Particulars: in comparison with the wild type; cited from earlier work.
The test system of series [4] is SV40-transformed Balb 3T3 cells. Particulars: cited from earlier work.
Series [5] concerns tomato spotted wilt virus. The following applies: tomato and tobacco plants; cited from earlier work.
Series [6] addresses T1, recombinant MPS-1 (Homo sapiens, UniProt P42677).
T1 construct: made in house
Description: Gel shift assay and Zn65 removal with recombinant MPS-1. The following applies: for zinc dependent binding of recombinant MPS-1 to DNA: gel shift assays. The class given is biochemical. The source says: MPS-1 is a ubiquitous tumor marker and cell growth stimulator and is described in detail in the inventors' U.S. Pat. No. 5,243,041. MPS-1 has one zinc finger domain of the type CCCC. […] This is detected by a change in the electrophoretic mobility of MPS-1 under non-denaturing conditions. These experiments indicate that picolinic acid and derivatives should remove zinc and denature various types of zinc finger, zinc ring proteins, or other types of ZF motifs whether known or heretofore undiscovered, including animal or plant viral proteins such as nucleocapsid proteins of retrovirus or the nucleocapsid proteins of Geminivirus. Furthermore, the inventors have determined that any chemical compound, whether known or heretofore undiscovered, that will remove the zinc (or other metal) and denature the proteins or that will form a ternary complex (protein-zinc-chelator) can be effective as an antiviral agent, with nontoxic effects, provided that the agent conforms with certain specific structural requirements.
On the technique in general: In EMSA bound probe runs differently from free probe, usually more slowly.

Series [7] relates to virally infected cells. In words: Apoptosis of virally infected cells. The following applies: for fate of viruses and host cells: HIV-1, Hepatitis C and numerous other viruses as well as the host cells. The class given is cell-based. The source says: APOPTOSIS. Apoptosis is a morphological pattern of cell injury and an important mode of cell death (Robbins, Pathological Basis of Disease, 1999, 6th Ed). Apoptosis shares and overlaps common mechanisms with necrosis. […] This form of cell death is designed to eliminate defective, unwanted and damaged cells. For example, the inventors have shown that cells infected by Herpes Simplex Virus 1 (HSV; labialis) and HSV-2 genitalis are destroyed together with the host cells that they infected by apoptosis when exposed to pyridine carboxylates (Fernandez-Pol, Anticancer Res. 2002). […] Thus, the inventors believes that when host cells of animals or plants are infected by pathogenic viruses, unless the treatment is extremely quickly, the host cells and the virus will be destroyed. In fact, host cells defective, mutated, and reservoirs for the novo synthesis of viruses are unwanted host cells and must be eliminated in many instances to allow the survival of the organism.

Series [8] deals with Arabidopsis thaliana. Particulars: cited from earlier work.
Series [9] deals with Orobache ramosa. Particulars: Arabidopsis thaliana pre-treated with FU; cited from earlier work.
In series [10] the test system is HSV-1. Particulars: tissue culture and animals; cited from earlier work.
In series [11] the test system is HSV-2. The following applies: tissue culture and animals; cited from earlier work.
Series [12] has as its system iron incorporation into the cells. In words: Kinetic and radioisotopic studies of iron in cells. The class given is cell-based.
Series [13] has as its system transformed cells. Particulars: Kirsten sarcoma virus transformed cells; Flow Microfluorometric Analysis of DNA; cited from earlier work.
In series [14] the test system is NRK cells. The following applies: NRK cells treated with picolinic acid; cited from earlier work.
Series [15] deals with SV40 transformed BALB-3T3 cells. The following applies: 3 mM picolinic acid; cited from earlier work.
Series [16] concerns Rice suspension cells and leaves. The following applies: cited from earlier work.
Series [17] has as its system Arabidopsis thaliana. Particulars: cited from earlier work. This is another data set of the same source.
Series [18] relates to normal cells (BALB 3T3, NRK, WI-348). In words: Growth control and cell cycle arrest in normal cells.

SMILES strings stand for the structures. “Also recorded” adds a separate entry of the source.

As to `O=C(O)CN(CCN(CC(=O)O)CC(=O)O)CC(=O)O` [EDTA], the “disintegration of viral membranes” value in series [1] is given as “partial disintegration of viral membranes”; in [2], “partial disintegration of the viral membranes”.

Turning to `O=C(O)CN(CCOCCOCCN(CC(=O)O)CC(=O)O)CC(=O)O` [EGTA], the “disintegration of viral membranes” value in series [1] is recorded as “partial disintegration of viral membranes”; in [2], “partial disintegration of the viral membranes”.

Take `COS(C)(=O)=O` [MMS, Methyl Methane Sulphonate]: the “growth of ars27A seedlings” value in series [3] was “strongly inhibited”.

Take `NC(=O)c1cccnc1` [Nicotinamide, reference compound]: the “effect on cell growth or apoptosis” value in series [4] (48 h) is on record as “no effect on cell growth or apoptosis”.

Turning to `NC(=O)c1ncn([C@@H]2O[C@H](CO)[C@@H](O)[C@H]2O)n1` [Ribavirin], in [5], the “efficacy against tomato spotted wilt virus” value is given as “successfully used; also recorded: most efficient in tomato plants”.

As to `CCCCc1ccc(C(=O)O)nc1` [fusaric acid, 5-butyl picolinic acid], in [6], the “removal of zinc (Zn65) from the CCCC zinc finger of MPS-1” value was “remove radioactive Zn65 from MPS-1; also recorded: remove zinc” and the “zinc dependent binding of recombinant MPS-1 to DNA” value is recorded as “inhibit”. For the same compound, the “fate of viruses and host cells” value in [7] is given as “Death by apoptosis”. Further, in series [8] (also rapid transient membrane hyperpolarization, then large depolarization), the “concentrations that reduced root growth” value is > 500 µM. Further, the “concentration eliciting plant defense responses without toxic effects” value in series [8] (in vivo) was 100 nM. Further, the “germination of the angiosperm parasite” value in [9] is “inhibited”. Further, the “efficacy against viral infection” value in [10] is “effective”. Also, the “efficacy against viral infection” value in series [11] was “effective”.

As for `O=C(O)c1ccccn1` [picolinic acid, 2-pyridine carboxylic acid], in series [6], the “removal of zinc (Zn65) from the CCCC zinc finger of MPS-1” value was “remove radioactive Zn65 from MPS-1; also recorded: remove zinc” and the “zinc dependent binding of recombinant MPS-1 to DNA” value is on record as “inhibit”. In [12], the “incorporation of iron into the cells” value is “inhibits incorporation of iron into the cells” and the “removal of radioiron from the cells” value is reported as “effectively removes radioiron from the cells”. The “fate of viruses and host cells” value in series [7] is given as “Death by apoptosis”. In series [7] (by apoptosis), the “fate of virally infected cells” value is “killed”. The “phase of cell cycle arrest” value in [13] was “G1 phase”. Further, the “potency of prostaglandin E1 in elevating cyclic AMP” value in series [14] is recorded as “two to five times more potent”. In series [15], the “mitochondrial cytochrome c release” value is “released cytochrome c”. Also, the “sensitivity of transformed cells to apoptosis” value in [4] was “extremely sensitive to apoptosis”. For the same compound, in [16] (Rice suspension cells and leaves), the apoptosis result was “showed apoptosis”. In [16] (rice suspension cells, Ca^2+-dependent), the reactive oxygen species entry is “induced reactive oxygen species (ROS)”. Further, in series [16] (rice), the “hypersensitive response (HR)” value is reported as “can elicit the hypersensitive response (HR)”. Moreover, in [17] (dose-dependent and time dependent), the “marker defense genes PR-1, PR-2 and PDF1.2” value was “all induced”. Moreover, the “salicylic acid-dependent and jasmonic acid/ethylene-dependent pathways” value in series [17] (in vivo) is “strongly activated”. The “hypersensitive response (HR)” value in series [17] (including the oxidative burst and cell death) is “induced HR”. The “toxic effects in normal cells” value in [18] (longer exposure (one week)) is listed as “most normal cells showed no toxic effects; also recorded: no toxic effects”. In [18] (short-term treatment), the “cell cycle arrest of normal cells” value is “arrests normal cells in G1 (Go)”.
